Data on six compounds can be found in patent US20250074946A1, “USE OF SE-DR AFFINITY PEPTIDE IN PREPARING DRUG FOR TREATING RHEUMATIC DISEASE” (HEBEI FITNESS BIOTECHNOLOGY CO., LTD., priority 2021, published 2025).

The subject of series [1] is PBMC. Nature of the series: PBMC stimulation test, IL-6 in supernatant by ELISA. In kind it is cell-based, human. As to conditions: PBMC 1×10^6 cell/ml, peptide 10 μg/ml, 5 days of culture. The text has this: The SE-DR molecule is directly related to the pathogenesis of RA. It can present RA-related autoantigens in vivo, such as type II collagen (CII), heat shock protein 60 (Hsp60), cartilage glycoprotein (HCgp-39) and so on, and further activate autoreactive T cells, leading to the occurrence of rheumatoid arthritis. An important strategy for the treatment of RA is to use competitive inhibition to block the activation of autoreactive T cells by autoantigen peptides. […] Based on the above principles, we have designed and synthesized a series of altered peptide ligands, and screened for their affinity to SE-DR and for the activation ability on the peripheral blood T cells in RA patients. The specific steps and results are shown in Example 1 and Example 2.
3 mL ficoll was added to a 15 mL centrifuge tube, and 4 mL blood sample was then applied on the surface of ficoll. The tube was centrifuged at 400 g at 18-20° C. for 30-40 min. The upper layer of plasma was aspirated with a Pasteur pipette, and the PBMC layer (approximately 2 mL) was aspirated, and added to a 14 mL centrifuge tube previously filled with at least 3 volumes (6 mL) of PBS. The mixture was gently resuspended. The tube was centrifuged at 60-100 g for 10 min at 18-20° C. After centrifugation, the supernatant was removed with a Pasteur pipette, and the resulting cell mass was resuspended in 6-8 mL PBS and centrifuged at 18-20° C. for 10 min at 60-100 g to remove the supernatant. The cells were resuspended in an appropriate amount of 1640 complete medium and diluted to 1×10^6 cell/ml after cell counting. The diluted cell suspension was added to a 96-well plate. The positive control, allosteric peptide, was added to 100 μl cell culture to a final concentration of 10 μg/ml. The mixture was replenished to 200 μL with 1640 complete medium. After 5 days of culture, the supernatant was aspirated, centrifuged at 3000 rpm for 5 minutes, and the level of IL-6 in the supernatant was detected by ELISA.

In series [2] the test system is immune system of healthy rats. The experiment in a line: Immune indicators of SD rats after one month of administration (Example 4). In kind it is in vivo, rat. As to conditions: once a day for 4 weeks, end of administration. On the procedure: SD rats were used to investigate the effects of the SE-DR affinity peptides on the immune indicators of the rats after continuous administration for one month. […] At the end of administration, analysis was conducted on the serum anti-FNS007 antibodies, different types of serum immunoglobulins, the serum complement, the peripheral blood T lymphocyte and the serum cytokines.

The subject of series [3] is immune system of healthy monkeys. The experiment in a line: Immune indicators of cynomolgus monkeys after one month of administration (Example 5). In kind it is in vivo, cynomolgus monkey. As to conditions: once a day for 4 weeks, end of administration. The text has this:
Cynomolgus monkeys were used to investigate the effects of the SE-DR affinity peptide on the immune indicators of cynomolgus monkeys after continuous administration for one month. […] At the end of administration, the immune indicators, including the serum anti-FNS007 antibodies, the immunoglobulins of different serotypes, the serum complement, the peripheral blood T lymphocyte and the serum cytokines, were observed.

Series [4] has as its system CIA mice infected with chronic hepatitis B. Nature of the series: CIA mice infected with chronic hepatitis B (Example 8). In kind it is in vivo, mouse. The protocol:
Establishment of chronic hepatitis B model in mice: DBA/1 mice were injected with Raav8-1. 3 HBV (1×10^12 vg/mL) via tail vein to establish HBV chronic hepatitis B model.
DBA/1 mice infected with chronic hepatitis B were used to establish CIA model with chronic hepatitis B infection. Methods: Two days after the mice were injected with Raav8-1.3 HBV (1×10^12 vg/mL) via tail vein, the emulsion of bovine C II and CFA (containing 100 μg collagen) was intradermally injected into the tail head of the mice for immunization. After 21 days, the mice were boosted once by intraperitoneal injection of the emulsion (containing 100 μg collagen) prepared by bovine C II and IFA. Thereafter, the morphological changes of the four paws of the mice were examined every day, and the mice were randomly assigned to the treatment group at inflammation score of 1. […] Another 10 mice with latent hepatitis B infection were not subjected to model establishment and set as the control group. PBS was administrated to both the model group and the control group. The mice in each group were given the corresponding drugs by tail intravenous injection at the volume of 10 ml/kg, once every other day, for 27 consecutive days. The mice were sacrificed on day 28 after administration. The inflammation scores of the four paws of the mice in each group were evaluated during the administration. The serological indicators for virus injection and liver function of the mice were detected on the day of booster immunization (22 days after tail vein injection) and at the time of sacrifice.

In series [5] the test system is CIA rats with latent tuberculosis infection.

Where a SMILES comes first, the peptide text is derived from it.

Regarding `C[C@H](NC(=O)CNC(=O)CNC(=O)[C@H](CCC(N)=O)NC(=O)[C@H](CCC(=O)O)NC(=O)CNC(=O)[C@H](CCCCN)NC(=O)[C@@H](N)Cc1ccccc1)C(=O)NCC(=O)N[C@@H](CCC(=O)O)C(=O)O` [APL1], the “IL-6 levels in the supernatant” value in series [1] came out at 18.9 ng/mL.
For `CC[C@H](C)[C@H](N)C(=O)N[C@@H](Cc1c[nH]c2ccccc12)C(=O)N[C@@H](Cc1ccc(O)cc1)C(=O)N[C@H](C(=O)N[C@H](C(=O)N[C@@H](CS)C(=O)N[C@@H](Cc1ccccc1)C(=O)NCC(=O)N[C@@H](CS)C(=O)N[C@@H](CCC(=O)O)C(=O)N[C@H](C(=O)N[C@@H](Cc1c[nH]cn1)C(=O)N[C@@H](C)C(=O)N[C@@H](CCSC)C(=O)N[C@@H](CC(C)C)C(=O)O)[C@@H](C)O)[C@@H](C)O)[C@@H](C)CC` [APL10] (H-IWYITCFGCETHAML-OH; N-terminus and C-terminus assumed), in series [1], the “IL-6 levels in the supernatant” value was determined as 4.9 ng/mL.
The same measure, in the same setting: then `CC(C)C[C@H](NC(=O)[C@@H](NC(=O)[C@H](Cc1ccccc1)NC(=O)[C@H](CO)NC(=O)[C@@H](N)CCCNC(=N)N)[C@@H](C)O)C(=O)N[C@@H](CC(=O)O)C(=O)N[C@@H](CO)C(=O)N[C@@H](CO)C(=O)N[C@@H](CCC(=O)O)C(=O)N[C@H](C(=O)NCC(=O)N[C@H](C(=O)NCC(=O)O)C(C)C)[C@@H](C)O` [APL15], with 8.7 ng/mL; and `CC(C)C[C@H](NC(=O)[C@@H](NC(=O)[C@H](Cc1ccccc1)NC(=O)[C@H](CO)NC(=O)[C@@H](N)CCCNC(=N)N)[C@@H](C)O)C(=O)N[C@@H](CC(=O)O)C(=O)NCC(=O)N[C@@H](CO)C(=O)N[C@@H](CCC(=O)O)C(=O)N[C@H](C(=O)NCC(=O)N[C@H](C(=O)NCC(=O)O)C(C)C)[C@@H](C)O` [APL19], with 15.8 ng/mL.
Regarding `CC(C)C[C@H](NC(=O)[C@H](C)NC(=O)[C@@H](NC(=O)[C@H](C)NC(=O)[C@@H](N)CO)C(C)C)C(=O)N[C@@H](CCCNC(N)=O)C(=O)N[C@@H](CO)C(=O)N[C@@H](CO)C(=O)N[C@H](C(=O)N1CCC[C@H]1C(=O)NCC(=O)N[C@H](C(=O)N[C@@H](CCCNC(=N)N)C(=O)O)C(C)C)C(C)C` [APL24, SAVALCitSSVPGVR], the “IL-6 levels in the supernatant” value in series [1] came to 6.6 ng/mL.
Take `CC(C)C[C@H](NC(=O)CNC(=O)[C@H](CCCNC(N)=O)NC(=O)[C@H](C)NC(=O)[C@@H]1CCCN1C(=O)[C@@H]1CCCN1C(=O)[C@@H]1CCCN1C(=O)[C@H](C)NC(=O)[C@@H]1CCCN1C(=O)[C@H](CCCNC(N)=O)NC(=O)[C@H](CO)NC(=O)[C@H](CCCNC(=N)N)NC(=O)CNC(=O)[C@H](CCCNC(N)=O)NC(=O)[C@@H](NC(=O)[C@H](CO)NC(=O)[C@H](CCC(=O)O)NC(=O)[C@@H](NC(=O)[C@H](CO)NC(=O)[C@H](CO)NC(=O)[C@H](CCCNC(N)=O)NC(=O)[C@H](CC(C)C)NC(=O)[C@H](CCCNC(N)=O)NC(=O)[C@@H](N)C(C)C)C(C)C)[C@@H](C)O)C(=O)N[C@H](C(=O)O)[C@@H](C)O` [APL37, VCitLCitSSVESTCitGRSCitPAPPPACitGLT]: in series [2], the CD3% was 38.29 ± 11.34%, the CD4% is reported as 19.25 ± 7.84%, the CD8% is recorded as 18.33 ± 6.15% and the IFN-γ was determined as 2.44 ± 0.31 pg/mL. Moreover, in series [2], the IL-2 is reported as 3.28 ± 2.59 pg/mL, the IL-4 is given as 1.77 ± 0.85 pg/mL and the TNF-α is 4.96 ± 2.01 pg/mL. In series [3], the CD3% is on record as 64.55 ± 17.31%, the CD4% was 28.84 ± 9.35%, the CD8% was 27.61 ± 9.99% and the IFN-γ is given as 5.11 ± 0.54 pg/mL. In series [3], the IL-2 was 4.46 ± 0.44 pg/mL, the IL-4 was 2.18 ± 0.29 pg/mL and the TNF-α is given as 2.51 ± 0.41 pg/mL. In series [4] (at sacrifice, day 28), this compound had an ALT level of 47.37 ± 21.13 U/L. For the same compound, the “Observation on the daily condition of mice” value in series [4] (during administration) is recorded as “No abnormality”. Moreover, the “Observation on the daily condition of rats” value in series [5] (during administration) is “No abnormality”. Besides, the Tuberculosis recurrence rate in series [5] (peptides 0.2 mmol, adalimumab 1 mg/kg, 21 days) is 0%. In addition, the “Culture of MTB from lungs and spleens of rats at sacrifice” value in series [5] (sacrifice on day 22, peptides 0.2 mmol, adalimumab 1 mg/kg) is on record as “Negative”.
